In patent publication US9783532B2, “Molecules having certain pesticidal utilities, and intermediates, compositions, and processes related thereto” (Dow AgroSciences LLC, priority 2013, dated 2017):

Columns and labels:
Type in all cases: in vivo
[1] = system: Green Peach Aphid ("GPA") (Myzus persicae); experiment: Bioassay on green peach aphid (GPA), foliar spray on cabbage seedlings; details: for mortality at 200 ppm: Myzus persicae, foliar, 72 h, 200 ppm spray on infested cabbage seedlings, three days, Abbott corrected % control, read-out: GPA % Control (or Mortality) rating; for GPA (Biological Results, Insect species): Table ABC (FB), activity rating class
Description: Certain molecules disclosed in this document were tested against GPA using procedures described in the following example. In the reporting of the results, the “GPA Rating Table” was used (See Table Section).
Cabbage seedlings grown in 3-inch pots, with 2-3 small (3-5 cm) true leaves, were used as test substrate. The seedlings were infested with 20-50 GPA (wingless adult and nymph stages) one day prior to chemical application. Four pots with individual seedlings were used for each treatment. Test compounds (2 mg) were dissolved in 2 mL of acetone/methanol (1:1) solvent, forming stock solutions of 1000 ppm test compound. The stock solutions were diluted 5× with 0.025% Tween 20 in water to obtain the solution at 200 ppm test compound. A hand-held aspirator-type sprayer was used for spraying a solution to both sides of […] leaves until runoff. Reference plants (solvent check) were sprayed with the diluent only containing 20% by volume of acetone/methanol (1:1) solvent. Treated plants were held in a holding room for three days at approximately 25° C. and ambient relative humidity (RH) prior to grading. Evaluation was conducted by counting the number of live aphids per plant under a microscope. Percent Control was measured by using Abbott's correction formula (W. S. Abbott, “A Method of Computing the Effectiveness of an Insecticide” J. Econ. Entomol. 18 (1925), pp. 265-267) as follows. Corrected % Control=100*(X−Y)/X • where • X=No. of live aphids on solvent check plants and • Y=No. of live aphids on treated plants

[2] = system: Cabbage Looper (Trichoplusia ni) ("CL"); experiment: Bioassay on cabbage looper (CL), 128-well diet tray assay; details: for mortality at 50 µg/cm2: 168 h, 50 μg/cm^2 on artificial diet, second instar CL larvae, 25° C., five to seven days, average of eight wells, read-out: CL % Control (or Mortality) rating; for pest or weed control at 50 µg/cm2: Table ABC (FB), activity rating class, read-out: CL (Biological Results, Insect species)
Method in brief: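 Percent mortality, averaged across eight replicate wells, was read after five to seven days at 25 °C under a 14:10 photoperiod. Each well held one to five second-instar T. ni on diet carrying a dried 50 μg/cm^2 dose applied in acetone-water 90:10.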

[3] = system: Yellow Fever Mosquito "YFM" (Aedes aegypti); details: for YFM % Control (or Mortality) rating: about 1 day-old larvae, 96-well plate, room temperature, 3 days; for YFM (Biological Results, Insect species): Table ABC (FB), activity rating class
Method in brief: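 About 1 day-old Aedes aegypti larvae in liver-powder water added to wells holding compound diluted from 4000 ppm DMSO stock with 90:10 water:acetone, 6 replicate plates. Plates kept covered at room temperature for 3 days. Wells scored for mortality and reported as rating categories.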

[4] = system: Beet Armyworm (Spodoptera exigua) ("BAW"); experiment: Bioassay on beet armyworm (BAW), 128-well diet tray assay; details: for mortality at 50 µg/cm2: 168 h, 50 μg/cm^2 on artificial diet, second instar BAW larvae, 25° C., five to seven days, average of eight wells, read-out: BAW % Control (or Mortality) rating; for pest or weed control at 50 µg/cm2: Table ABC (FB), activity rating class, read-out: BAW (Biological Results, Insect species)
Method in brief: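 Percent mortality, averaged across eight wells, was read after five to seven days at 25° C. under 14:10 light-dark. Each well held one to five second-instar larvae on artificial diet that had been treated with 50 μg/cm^2 compound in 90:10 acetone-water and dried.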

SMILES | mortality at 200 ppm [1] [%] | mortality at 50 µg/cm2 [2] [%] | YFM % Control (or Mortality) rating [3] | mortality at 50 µg/cm2 [4] [%] | GPA (Biological Results, Insect species) [1] | pest or weed control at 50 µg/cm2 [2] [%] | YFM (Biological Results, Insect species) [3] | pest or weed control at 50 µg/cm2 [4] [%]
CC(C)c1ccccc1NC(=S)NC(=O)NCCc1ccc(-c2ncn(-c3ccc(OC(F)(F)F)cc3)n2)cc1 [F2, N-[2-isopropylphenyl]-N-[2-(4-{1-[4-(trifluoromethoxy)phenyl]-1H-1,2,4-triazol-3-yl}phenyl)ethyl]dicarbonimidothioic diamide] | 0 to 80 | 50 to 100 | A (80-100) | 50 to 100 | – | – | – | –
Cc1ccc(C(C)C)c(N2C(=O)CS/C2=N\C(=O)NCCc2ccc(-c3ncn(-c4ccc(OC(F)(F)F)cc4)n3)cc2)c1 [F5, (Z)-1-(3-(2-isopropropyl-5-methylphenyl)-4-oxothiazolidin-2-ylidene)-3-(4-(1-(4-(trifluoromethoxy)phenyl)-1H-1,2,4-triazol-3-yl)phenethyl)urea] | 80 to 100 | 50 to 100 | A (80-100) | 50 to 100 | – | – | – | –
COc1ccc(C(C)C)c(N2C(=O)CS/C2=N\C(=O)NCCc2ccc(-c3ncn(-c4ccc(OC(F)(F)F)cc4)n3)cc2)c1 [F6, (Z)-1-(3-(2-isopropyl-5-methoxyphenyl)-4-oxothiazolidin-2-ylidene)-3-(4-(1-(4-(trifluoromethoxy)phenyl)-1H-1,2,4-triazol-3-yl)phenethyl)urea] | 0 to 80 | 50 to 100 | A (80-100) | 50 to 100 | – | – | – | –
CC(Cc1ccc(-c2ncn(-c3ccc(OC(F)(F)F)cc3)n2)cc1)NC(=O)/N=C1\SCC(=O)N1c1ccccc1C(C)C (centres unmarked) [F7, (Z)-1-(3-(2-isopropylphenyl)-4-oxothiazolidin-2-ylidene)-3-(1-(4-(1-(4-(trifluoromethoxy)phenyl)-1H-1,2,4-triazol-3-yl)phenyl)propan-2-yl)urea] | 0 to 80 | 50 to 100 | A (80-100) | 50 to 100 | – | – | – | –
Cc1ccc(C(C)C)c(N2C(=O)CS/C2=N\C(=O)NCCc2ccc(-c3ncn(-c4ccc(OC(F)(F)C(F)(F)F)cc4)n3)cc2)c1 [F9, (Z)-1-(3-(2-isopropyl-5-methylphenyl)-4-oxothiazolidin-2-ylidene)-3-(4-(1-(4-(perfluoroethoxy)phenyl)-1H-1,2,4-triazol-3-yl)phenethyl)urea] | 0 | 50 to 100 | A (80-100) | 50 to 100 | – | – | – | –
Cc1ccc(C(C)C)c(N2C(=O)CS/C2=N\C(=O)NCC(C)c2ccc(-c3ncn(-c4ccc(OC(F)(F)F)cc4)n3)cc2)c1 (centres unmarked) [F10, (Z)-1-(3-(2-isopropyl-5-methylphenyl)-4-oxothiazolidin-2-ylidene)-3-(2-(4-(1-(4-(trifluoromethoxy)phenyl)-1H-1,2,4-triazol-3-yl)phenyl)propyl)urea] | 0 to 80 | 50 to 100 | A (80-100) | 50 to 100 | – | – | – | –
CC(C)c1ccccc1NC(=S)NC(=O)NCc1ccc(-c2ncn(-c3ccc(OC(F)(F)F)cc3)n2)cc1 [F14, N-[2-(propan-2-yl)phenyl]-N′-(4-{1-[4-(trifluoromethoxy)phenyl]-1H-1,2,4-triazol-3-yl}benzyl)dicarbonimidothioic diamide] | 0 | 50 to 100 | A (80-100) | 50 to 100 | – | – | – | –
Cc1ccc(C(C)C)c(NC(=S)NC(=O)NCCCc2ccc(-c3ncn(-c4ccc(OC(F)(F)F)cc4)n3)cc2)c1 [F21, 1-[(2-isopropyl-5-methyl-phenyl)carbamothioyl]-3-[3-[4-[1-[4-(trifluoromethoxy)phenyl]-1H-1,2,4-triazol-3-yl]phenyl]propyl]urea] | 0 | 50 to 100 | A (80-100) | 50 to 100 | – | – | – | –
CC(C)c1ccccc1N1C(=O)CS/C1=N\C(=O)NC1CC1c1ccc(-c2ncn(-c3ccc(OC(F)(F)F)cc3)n2)cc1 (centres unmarked) [F29, (Z)-1-(3-(2-isopropylphenyl)-4-oxothiazolidin-2-ylidene)-3-(2-(4-(1-(4-(trifluoromethoxy)phenyl)-1H-1,2,4-triazol-3-yl)phenyl)cyclopropyl)urea] | 0 | 50 to 100 | A (80-100) | 50 to 100 | – | – | – | –
CCc1ccc(C)cc1N1C(=O)CS/C1=N\C(=O)NC1CC1c1ccc(-c2ncn(-c3ccc(OC(F)(F)F)cc3)n2)cc1 (centres unmarked) [F33, (Z)-1-(3-(2-ethyl-5-methylphenyl)-4-oxothiazolidin-2-ylidene)-3-(2-(4-(1-(4-(trifluoromethoxy)phenyl)-1H-1,2,4-triazol-3-yl)phenyl)cyclopropyl)urea] | 0 | 50 to 100 | – | 50 to 100 | – | – | – | –
Cc1ccc(C(C)C)c(N2CCS/C2=N\C(=O)NC2CC2c2ccc(-c3ncn(-c4ccc(OC(F)(F)F)cc4)n3)cc2)c1 (centres unmarked) [F34, (Z)-1-(3-(2-isopropyl-5-methylphenyl)thiazolidin-2-ylidene)-3-(2-(4-(1-(4-(trifluoromethoxy)-phenyl)-1H-1,2,4-triazol-3-yl)phenyl)cyclopropyl)urea] | 0 | 50 to 100 | – | 50 to 100 | – | – | – | –
CCC(Cc1ccc(-c2ncn(-c3ccc(OC(F)(F)F)cc3)n2)cc1)NC(=O)/N=C1\SCC(=O)N1c1cc(C)ccc1C(C)C (centres unmarked) [FB43, (Z)-1-(3-(2-isopropyl-5-methylphenyl)-4-oxothiazolidin-2-ylidene)-3-(1-(4-(1-(4-(trifluoromethoxy)phenyl)-1H-1,2,4-triazol-3-yl)phenyl)butan-2-yl)urea] | – | – | – | – | B (More than 0-Less than 80) | 50 to 100 | A (80-100) | 50 to 100
CCC(Cc1ccc(-c2ncn(-c3ccc(OC(F)(F)F)cc3)n2)cc1)NC(=O)/N=C1\SCC(=O)N1c1cc(Cl)ccc1C(C)C (centres unmarked) [FB44, (Z)-1-(3-(5-chloro-2-isopropylphenyl)-4-oxothiazolidin-2-ylidene)-3-(1-(4-(1-(4-(trifluoromethoxy)phenyl)-1H-1,2,4-triazol-3-yl)phenyl)butan-2-yl)urea] | – | – | – | – | B (More than 0-Less than 80) | 50 to 100 | A (80-100) | 50 to 100
CC(C)c1cc(F)ccc1N1C(=O)CS/C1=N\C(=O)NCCc1ccc(-c2ncn(-c3ccc(OC(F)(F)F)cc3)n2)cc1 [P28, (Z)-1-(3-(4-fluoro-2-isopropylphenyl)-4-oxothiazolidin-2-ylidene)-3-(4-(1-(4-(trifluoromethoxy)phenyl)-1H-1,2,4-triazol-3-yl)phenethyl)urea] | 0 | 50 to 100 | A (80-100) | 50 to 100 | – | – | – | –
COc1ccc(N2C(=O)CS/C2=N\C(=O)NCCc2ccc(-c3ncn(-c4ccc(OC(F)(F)F)cc4)n3)cc2)c(C)c1 [P44, (Z)-1-(3-(4-methoxy-2-methylphenyl)-4-oxothiazolidin-2-ylidene)-3-(4-(1-(4-(trifluoromethoxy)phenyl)-1H-1,2,4-triazol-3-yl)phenethyl)urea] | 0 | 50 to 100 | A (80-100) | 50 to 100 | – | – | – | –
CC(C)c1cccc(N2C(=O)CS/C2=N\C(=O)NCCc2ccc(-c3ncn(-c4ccc(OC(F)(F)F)cc4)n3)cc2)c1 [P51, (Z)-1-(3-(3-isopropylphenyl)-4-oxothiazolidin-2-ylidene)-3-(4-(1-(4-(trifluoromethoxy)phenyl)-1H-1,2,4-triazol-3-yl)phenethyl)urea] | 0 to 80 | 50 to 100 | A (80-100) | 50 to 100 | – | – | – | –
